Data: ChEMBL document CHEMBL3217463, “Design, synthesis and biological evaluation of -lactam hydroxamate based TACE inhibitors” (Medchemcomm, 2011)

Key:
[1] = system: Blood; experiment: Antiinflammatory activity in human whole blood assessed as inhibition of LPS-induced TNFalpha secretion by ELISA; type: functional, tissue-based
[2] = Half life in Wistar rat at 5 mg/kg, po; type: ADME, organism-based; design: dose 5 mg/kg, route oral; details: Wistar, in vivo
[3] = system: Rattus norvegicus; experiment: Toxicity in Wistar rat assessed as aspartate aminotransferase at 100 mg/kg, po bid for 28 days (reference value: 147.16 +/- 11.75 U/L); type: organism-based; design: dose 100 mg/kg, route oral; details: in vivo, 672 h
[4] = biological target: T1, Interstitial collagenase (Homo sapiens, UniProt P03956); experiment: Inhibition of MMP1 (unknown origin) by fluorescence-based FRET assay
T1 sequence (P03956 whole entry): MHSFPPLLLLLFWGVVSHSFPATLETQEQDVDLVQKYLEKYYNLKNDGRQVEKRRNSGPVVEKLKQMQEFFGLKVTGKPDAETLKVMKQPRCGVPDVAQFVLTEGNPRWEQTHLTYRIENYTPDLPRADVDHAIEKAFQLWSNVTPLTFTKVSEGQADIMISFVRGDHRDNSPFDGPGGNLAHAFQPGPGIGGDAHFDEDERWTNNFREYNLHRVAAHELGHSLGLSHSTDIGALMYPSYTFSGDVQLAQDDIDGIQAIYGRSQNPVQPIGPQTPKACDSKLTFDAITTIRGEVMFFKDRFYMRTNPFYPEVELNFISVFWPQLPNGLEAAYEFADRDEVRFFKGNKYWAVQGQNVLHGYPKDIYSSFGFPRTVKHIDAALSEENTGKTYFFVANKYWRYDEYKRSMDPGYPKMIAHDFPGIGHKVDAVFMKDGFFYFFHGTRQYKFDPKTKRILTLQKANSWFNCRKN

[5] = Half life in Wistar rat at 5 mg/kg, iv; type: ADME, organism-based; design: dose 5 mg/kg, route intravenous; details: in vivo
[6] = biological target: Collagenase 3 (Homo sapiens, UniProt P45452); experiment: Inhibition of MMP13 (unknown origin) by fluorescence-based FRET assay
[7] = system: Rattus norvegicus; experiment: Toxicity in Wistar rat assessed as relative spleen weight at 100 mg/kg, po bid for 28 days (reference value: 0.201+/- 0.007 %); type: organism-based; design: dose 100 mg/kg, route oral; details: in vivo, 672 h
[8] = biological target: Matrix metalloproteinase-9 (Homo sapiens, UniProt P14780); experiment: Inhibition of MMP9 (unknown origin) by fluorescence-based FRET assay
Matrix metalloproteinase-9, sequence (P14780 whole entry): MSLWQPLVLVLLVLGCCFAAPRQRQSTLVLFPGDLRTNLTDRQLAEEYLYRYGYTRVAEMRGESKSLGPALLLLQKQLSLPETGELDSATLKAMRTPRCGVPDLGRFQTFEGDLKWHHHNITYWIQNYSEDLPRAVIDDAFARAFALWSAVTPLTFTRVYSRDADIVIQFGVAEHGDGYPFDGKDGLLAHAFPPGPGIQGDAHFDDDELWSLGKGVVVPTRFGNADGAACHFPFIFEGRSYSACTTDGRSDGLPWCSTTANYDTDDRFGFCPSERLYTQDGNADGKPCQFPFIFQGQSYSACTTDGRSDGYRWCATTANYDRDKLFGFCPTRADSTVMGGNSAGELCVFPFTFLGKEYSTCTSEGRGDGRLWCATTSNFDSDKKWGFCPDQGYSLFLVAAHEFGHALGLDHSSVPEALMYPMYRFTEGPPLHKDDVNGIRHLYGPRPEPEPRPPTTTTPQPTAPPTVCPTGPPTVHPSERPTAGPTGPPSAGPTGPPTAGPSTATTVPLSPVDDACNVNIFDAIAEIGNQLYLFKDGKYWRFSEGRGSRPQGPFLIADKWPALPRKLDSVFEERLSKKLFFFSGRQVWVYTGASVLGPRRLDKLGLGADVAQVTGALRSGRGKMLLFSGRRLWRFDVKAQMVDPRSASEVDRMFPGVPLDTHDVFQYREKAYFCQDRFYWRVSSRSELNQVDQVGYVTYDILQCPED

[9] = biological target: Stromelysin-1 (Homo sapiens, UniProt P08254); experiment: Inhibition of MMP3 (unknown origin) by fluorescence-based FRET assay
Stromelysin-1, sequence (P08254 whole entry): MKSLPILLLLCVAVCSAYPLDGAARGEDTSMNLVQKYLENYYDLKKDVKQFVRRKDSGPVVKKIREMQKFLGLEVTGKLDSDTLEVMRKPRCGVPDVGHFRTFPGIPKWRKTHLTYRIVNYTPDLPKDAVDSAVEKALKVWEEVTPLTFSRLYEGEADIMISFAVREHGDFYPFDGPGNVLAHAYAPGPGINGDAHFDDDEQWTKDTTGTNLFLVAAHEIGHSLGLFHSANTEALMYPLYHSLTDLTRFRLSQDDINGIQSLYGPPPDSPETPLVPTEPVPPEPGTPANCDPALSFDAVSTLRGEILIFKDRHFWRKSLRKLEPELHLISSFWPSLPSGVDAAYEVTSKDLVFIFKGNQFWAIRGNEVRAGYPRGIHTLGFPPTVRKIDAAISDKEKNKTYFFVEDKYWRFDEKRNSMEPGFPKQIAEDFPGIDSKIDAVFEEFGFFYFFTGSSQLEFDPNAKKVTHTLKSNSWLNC

[10] = system: Rattus norvegicus; experiment: Toxicity in Wistar rat assessed as alanine aminotransferase at 100 mg/kg, po bid for 28 days (reference value: 20.78 +/- 1.31 U/L); type: organism-based; design: dose 100 mg/kg, route oral; details: in vivo, 672 h
[11] = system: Rattus norvegicus; experiment: Toxicity in Wistar rat assessed as adverse changes at 100 mg/kg, po bid for 28 days; type: organism-based; design: dose 100 mg/kg, route oral; details: in vivo, 672 h
[12] = biological target: 72 kDa type IV collagenase (Homo sapiens, UniProt P08253); experiment: Inhibition of MMP2 (unknown origin) by fluorescence-based FRET assay
72 kDa type IV collagenase, sequence (P08253 whole entry): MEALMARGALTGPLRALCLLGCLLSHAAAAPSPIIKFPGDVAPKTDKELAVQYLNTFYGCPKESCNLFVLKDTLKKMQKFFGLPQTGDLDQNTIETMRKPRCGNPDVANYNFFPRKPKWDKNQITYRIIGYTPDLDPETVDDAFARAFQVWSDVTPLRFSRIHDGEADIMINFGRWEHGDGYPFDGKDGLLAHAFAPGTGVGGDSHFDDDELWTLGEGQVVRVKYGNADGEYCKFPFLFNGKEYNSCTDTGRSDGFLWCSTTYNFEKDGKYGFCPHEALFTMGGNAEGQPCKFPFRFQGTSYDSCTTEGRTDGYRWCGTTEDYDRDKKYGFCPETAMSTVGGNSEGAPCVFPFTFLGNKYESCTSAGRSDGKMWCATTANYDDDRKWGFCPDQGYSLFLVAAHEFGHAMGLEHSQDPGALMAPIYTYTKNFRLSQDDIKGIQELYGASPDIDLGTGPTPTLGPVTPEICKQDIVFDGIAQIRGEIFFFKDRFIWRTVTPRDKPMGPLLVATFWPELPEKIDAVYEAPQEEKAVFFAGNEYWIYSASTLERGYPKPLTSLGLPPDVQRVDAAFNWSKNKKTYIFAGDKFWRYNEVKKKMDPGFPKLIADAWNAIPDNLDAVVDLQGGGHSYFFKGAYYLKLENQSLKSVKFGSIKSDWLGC

[13] = Oral bioavailability in Wistar rat at 5 mg/kg; type: ADME, organism-based; details: in vivo
[14] = biological target: Matrix metalloproteinase-14 (Homo sapiens, UniProt P50281); experiment: Inhibition of MMP14 (unknown origin) by fluorescence-based FRET assay
[15] = AUC in Wistar rat at 5 mg/kg, iv; type: ADME, organism-based; design: dose 5 mg/kg, route intravenous; details: plasma
[16] = AUC in Wistar rat at 5 mg/kg, po; type: ADME, organism-based; design: dose 5 mg/kg, route oral; details: plasma
[17] = Elimination rate constant in Wistar rat at 5 mg/kg, iv; type: ADME, organism-based; design: dose 5 mg/kg, route intravenous; details: in vivo
[18] = Tmax in Wistar rat at 5 mg/kg, po; type: ADME, organism-based; design: dose 5 mg/kg, route oral; details: in vivo
[19] = system: Rattus norvegicus; experiment: Toxicity in Wistar rat assessed as relative brain weight at 100 mg/kg, po bid for 28 days (reference value: 0.727+/- 0.024 %); type: organism-based; design: dose 100 mg/kg, route oral; details: in vivo, 672 h
[20] = system: Rattus norvegicus; experiment: Toxicity in Wistar rat assessed as food consumption at 100 mg/kg, po bid for 28 days; type: organism-based; design: dose 100 mg/kg, route oral; details: in vivo, 672 h
[21] = system: Rattus norvegicus; experiment: Toxicity in Wistar rat assessed as total bilirubin at 100 mg/kg, po bid for 28 days (reference value: 0.14 +/- 0.01 mg/dL); type: organism-based; design: dose 100 mg/kg, route oral; details: in vivo, 672 h
[22] = biological target: T2, Disintegrin and metalloproteinase domain-containing protein 17 (Homo sapiens, UniProt P78536); experiment: Inhibition of human catalytic domain of TACE assessed as inhibit the cleavage of the substrate by fluorescence-based FRET assay
T2 sequence (P78536 whole entry, the tested form may be a part): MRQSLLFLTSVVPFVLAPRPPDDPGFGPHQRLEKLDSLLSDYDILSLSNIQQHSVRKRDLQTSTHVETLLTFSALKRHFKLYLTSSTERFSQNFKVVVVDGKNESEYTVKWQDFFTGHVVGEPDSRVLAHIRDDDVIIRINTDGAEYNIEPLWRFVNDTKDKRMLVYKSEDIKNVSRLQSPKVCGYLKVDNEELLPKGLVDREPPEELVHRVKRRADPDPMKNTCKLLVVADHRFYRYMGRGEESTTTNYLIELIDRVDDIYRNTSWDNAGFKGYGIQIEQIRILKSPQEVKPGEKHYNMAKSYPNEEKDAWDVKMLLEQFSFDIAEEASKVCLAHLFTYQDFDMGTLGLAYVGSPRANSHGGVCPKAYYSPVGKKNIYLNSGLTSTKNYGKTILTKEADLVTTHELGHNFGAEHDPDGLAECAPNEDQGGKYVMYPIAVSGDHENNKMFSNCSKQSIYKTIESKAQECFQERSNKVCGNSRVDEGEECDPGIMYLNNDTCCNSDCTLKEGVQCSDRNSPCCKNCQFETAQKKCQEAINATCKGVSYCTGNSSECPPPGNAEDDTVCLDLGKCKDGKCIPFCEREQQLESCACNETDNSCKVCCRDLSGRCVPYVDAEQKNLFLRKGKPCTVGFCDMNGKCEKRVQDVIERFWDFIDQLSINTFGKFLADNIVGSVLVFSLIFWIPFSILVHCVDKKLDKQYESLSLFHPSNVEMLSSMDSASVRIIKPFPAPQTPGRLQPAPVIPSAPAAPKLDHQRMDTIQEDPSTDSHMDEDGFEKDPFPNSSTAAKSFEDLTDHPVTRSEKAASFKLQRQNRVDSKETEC

[23] = system: Rattus norvegicus; experiment: Toxicity in Wistar rat assessed as alkaline phosphatase at 100 mg/kg, po bid for 28 days (reference value: 134.66 +/- 5.3 U/L); type: organism-based; design: dose 100 mg/kg, route oral; details: in vivo, 672 h
[24] = system: Rattus norvegicus; experiment: Toxicity in Wistar rat assessed as RBC count at 100 mg/kg, po bid for 28 days (reference value: 7.38 +/- 0.11 10^6/ul); type: organism-based; design: dose 100 mg/kg, route oral; details: in vivo, 672 h
[25] = system: Rattus norvegicus; experiment: Toxicity in Wistar rat assessed as relative kidney weight at 100 mg/kg, po bid for 28 days (reference value: 0.821 +/- 0.03 %); type: organism-based; design: dose 100 mg/kg, route oral; details: in vivo, 672 h
[26] = system: Mus musculus; experiment: Antiinflammatory activity in po dosed Swiss Albino mouse assessed as inhibition of LPS-induced TNFalpha secretion in blood treated 0.5 hrs before LPS and measured after 1 hr of LPS stimulus by ELISA; type: functional
[27] = system: Rattus norvegicus; experiment: Toxicity in Wistar rat assessed as body weight at 100 mg/kg, po bid for 28 days; type: organism-based; design: dose 100 mg/kg, route oral; details: in vivo, 672 h
[28] = system: Rattus norvegicus; experiment: Toxicity in Wistar rat assessed as WBC count at 100 mg/kg, po bid for 28 days (reference value: 8.20 +/- 0.33 10^3/ul); type: organism-based; design: dose 100 mg/kg, route oral; details: in vivo, 672 h
[29] = biological target: T3, Matrilysin (Homo sapiens, UniProt P09237); experiment: Inhibition of MMP7 (unknown origin) by fluorescence-based FRET assay
T3 sequence (P09237 whole entry): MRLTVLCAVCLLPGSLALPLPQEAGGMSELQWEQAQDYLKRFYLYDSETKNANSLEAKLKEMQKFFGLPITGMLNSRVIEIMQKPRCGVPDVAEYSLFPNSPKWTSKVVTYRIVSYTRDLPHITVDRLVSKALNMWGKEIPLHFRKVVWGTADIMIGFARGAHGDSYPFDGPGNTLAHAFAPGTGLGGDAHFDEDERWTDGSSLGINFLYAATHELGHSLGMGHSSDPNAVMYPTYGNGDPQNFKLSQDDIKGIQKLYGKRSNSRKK

[30] = Elimination rate constant in Wistar rat at 5 mg/kg, po; type: ADME, organism-based; design: dose 5 mg/kg, route oral; details: Wistar, in vivo
[31] = biological target: Neutrophil collagenase (Homo sapiens, UniProt P22894); experiment: Inhibition of MMP8 (unknown origin) by fluorescence-based FRET assay
Neutrophil collagenase, sequence (P22894 whole entry): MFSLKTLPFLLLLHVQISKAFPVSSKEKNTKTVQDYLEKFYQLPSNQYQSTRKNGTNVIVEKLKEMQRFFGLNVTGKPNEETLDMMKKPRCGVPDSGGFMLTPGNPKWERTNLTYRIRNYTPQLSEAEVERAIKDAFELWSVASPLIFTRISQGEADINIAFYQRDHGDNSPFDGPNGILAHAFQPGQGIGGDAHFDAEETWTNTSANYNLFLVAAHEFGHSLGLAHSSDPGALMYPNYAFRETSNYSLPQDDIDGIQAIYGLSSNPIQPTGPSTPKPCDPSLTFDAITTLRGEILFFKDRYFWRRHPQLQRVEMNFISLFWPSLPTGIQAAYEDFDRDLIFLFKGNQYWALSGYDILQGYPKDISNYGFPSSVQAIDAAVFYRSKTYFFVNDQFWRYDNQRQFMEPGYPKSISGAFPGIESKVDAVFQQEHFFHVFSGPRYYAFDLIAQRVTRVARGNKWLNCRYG

[32] = system: Rattus norvegicus; experiment: Toxicity in Wistar rat assessed as survival at 100 mg/kg, po bid for 28 days; type: organism-based; design: dose 100 mg/kg, route oral; details: in vivo, 672 h
[33] = system: Rattus norvegicus; experiment: Toxicity in Wistar rat assessed as relative liver weight at 100 mg/kg, po bid for 28 days (reference value: 3.659 +/- 0.1 %); type: organism-based; design: dose 100 mg/kg, route oral; details: in vivo, 672 h
[34] = biological target: T4, Disintegrin and metalloproteinase domain-containing protein 10 (Homo sapiens, UniProt O14672); experiment: Inhibition of ADAM10 (unknown origin) using fluorescent substrate by fluorescence-based FRET assay
T4 sequence (O14672 whole entry): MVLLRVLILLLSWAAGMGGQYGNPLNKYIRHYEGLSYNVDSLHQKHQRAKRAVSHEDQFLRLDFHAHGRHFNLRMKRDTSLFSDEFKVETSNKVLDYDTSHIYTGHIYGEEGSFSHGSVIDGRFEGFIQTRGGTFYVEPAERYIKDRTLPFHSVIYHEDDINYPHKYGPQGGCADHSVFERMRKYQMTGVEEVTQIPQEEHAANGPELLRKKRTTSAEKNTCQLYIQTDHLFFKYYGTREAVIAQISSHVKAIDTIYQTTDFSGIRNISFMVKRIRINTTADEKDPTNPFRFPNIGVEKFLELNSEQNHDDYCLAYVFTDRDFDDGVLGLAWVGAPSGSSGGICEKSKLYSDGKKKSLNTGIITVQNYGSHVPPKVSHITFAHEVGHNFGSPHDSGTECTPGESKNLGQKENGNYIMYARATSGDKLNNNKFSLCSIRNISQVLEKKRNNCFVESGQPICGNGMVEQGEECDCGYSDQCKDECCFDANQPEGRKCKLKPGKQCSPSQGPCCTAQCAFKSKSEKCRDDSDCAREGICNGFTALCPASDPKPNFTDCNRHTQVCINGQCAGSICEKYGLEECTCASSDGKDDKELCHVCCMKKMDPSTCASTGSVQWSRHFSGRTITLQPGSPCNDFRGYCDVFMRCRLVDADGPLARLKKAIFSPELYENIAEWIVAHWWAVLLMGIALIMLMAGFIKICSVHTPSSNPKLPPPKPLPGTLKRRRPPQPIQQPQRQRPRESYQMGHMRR

[35] = system: Rattus norvegicus; experiment: Toxicity in Wistar rat assessed as relative heart weight at 100 mg/kg, po bid for 28 days (reference value: 0.345 +/- 0.007 %); type: organism-based; design: dose 100 mg/kg, route oral; details: in vivo, 672 h
[36] = biological target: T2, Disintegrin and metalloproteinase domain-containing protein 17; experiment: Ratio of IC50 for human catalytic domain of TACE to IC50 for ADAM10 (unknown origin)

Molecule `COCc1cc(COc2ccc([C@]3(N)CCN([C@H](CC(C)C)C(=O)OC)C3=O)cc2)c2ccccc2n1` has an IC50 [1] of 3000 nM.
Molecule `COCc1cc(COc2ccc([C@]3(N)CCN([C@H](CC(C)C)C(=O)O)C3=O)cc2)c2ccccc2n1` has an IC50 [1] of 3230 nM.
`COCc1cc(COc2ccc([C@]3(NC(=O)OC(C)(C)C)CCN([C@H](CC(C)C)C(=O)NO)C3=O)cc2)c2ccccc2n1` gave an IC50 [1] of 3050 nM.
In the case of `Cc1cccc(-c2cc(COc3ccc([C@]4(N)CCN([C@H](CC(C)C)C(=O)NO)C4=O)cc3)c3ccccc3n2)c1`, the IC50 [1] is reported as 3880 nM.
`CC(C)C[C@H](C(=O)NO)N1CC[C@@](N)(c2ccc(OCc3cc(C(C)C)nc4ccccc34)cc2)C1=O` gave an IC50 [1] of 140 nM.
Molecule `COc1ccc(-c2cc(COc3ccc([C@]4(N)CCN([C@H](CC(C)C)C(=O)NO)C4=O)cc3)c3ccccc3n2)cc1` has an IC50 [1] of 250 nM.
With `CC(C)C[C@H](C(=O)NO)N1CC[C@@](N)(c2ccc(OCc3cc(-c4ccc(OCc5ccccc5)cc4)nc4ccccc34)cc2)C1=O` the IC50 [1] was 4000 nM.
Molecule `Cc1ccc(-c2cc(COc3ccc([C@]4(N)CCN([C@H](CC(C)C)C(=O)NO)C4=O)cc3)c3ccccc3n2)cc1` has an IC50 [1] of 2900 nM.
With `CC(C)C[C@H](C(=O)NO)N1CC[C@@](N)(c2ccc(OCc3cc(-c4ccccc4)nc4ccccc34)cc2)C1=O` the IC50 [1] was 3060 nM.
In the case of `CC(C)C[C@H](C(=O)NO)N1CC[C@@](N)(c2ccc(OCc3cc(C(F)(F)F)nc4ccccc34)cc2)C1=O`, the IC50 [1] is reported as 470 nM.
Molecule `Cc1cc(COc2ccc([C@]3(N)CCN([C@H](CC(C)C)C(=O)NO)C3=O)cc2)c2ccccc2n1` has a half-life [2] of 8.67 h, an Activity [3] of 457.21 U/L and an IC50 [4] of 429 nM. It also gave a half-life [5] of 2.69 h, an IC50 [6] of 461 nM and an Activity [7] of 0.211%. The IC50 [8] was 389 nM, the IC50 [9] was 285 nM and the Activity [10] was 39.22 U/L. For the same molecule, the Activity [11] was “Non-toxic”, the IC50 [1] was 60 nM and the IC50 [12] was 482 nM. For the same molecule, the bioavailability [13] was 18.4%, the IC50 [14] was 499 nM and the AUC [15] was 32400 ng·h/mL. The AUC [16] was 5970 ng·h/mL, the k el [17] was 8.33e-05 s⁻¹ and the Tmax [18] was 1.21 h. For the same molecule, the Activity [19] was 0.714%, the Activity [20] was “Non-toxic” and the Activity [21] was 0.79 mg/dL. It also gave an IC50 [22] of 12 nM, an Activity [23] of 523.43 U/L and an Activity [24] of 7.69 ×10⁶ /uL. For the same molecule, the Activity [25] was 0.831%, the ED50 [26] was 6.9 mg/kg and the Activity [27] was “Non-toxic”. The Activity [28] was 8.99 ×10³ /uL, the IC50 [29] was 466 nM and the k el [30] was 2.22e-05 s⁻¹. The IC50 [31] was 299 nM, the Activity [32] was “Non-toxic” and the Activity [33] was 4.993%. For the same molecule, the IC50 [34] was 480 nM, the Activity [35] was 0.351% and the Ratio IC50 [36] was 40.
